Experimental data taken from PMC12669040, “Tumour-specific STING agonist synthesis via a two-component prodrug system” (Nature Chemistry, 2025).
Where “and” joins values, the source holds several entries; their conditions need not be identical. Identical values can stand only once.

What was measured:
[1] = Colorimetric alkylation rate constant assay with TNB^2− as non-specific thiol; format: physicochemical; design: second-order: unit not given here; settings: for remaining [B]: in µM
[2] = Colorimetric alkylation rate constant assay with thiol N1; format: physicochemical; settings: for remaining [A]: N1 from calibration curve (N1 in uM); for remaining [A] / remaining [B]: in µM
[3] = Time 2891 sec, [B]0 = 250, Replicates 1-3
[4] = Time 3071 sec, [B]0 = 250, Replicates 1-3
[5] = Time 3252 sec, [B]0 = 250, Replicates 1-3
[6] = Time 3433 sec, [B]0 = 250, Replicates 1-3
[7] = Time 3613 sec, [B]0 = 250, Replicates 1-3

remaining [B] ([1]; Replicate 1, 723 sec, [B]0 = 250): 244.563
remaining [B] ([1]; Replicate 1, 903 sec, [B]0 = 250): 244.311
remaining [B] ([1]; Replicate 1, 1084 sec, [B]0 = 250): 243.946
remaining [B] ([1]; Replicate 1, 1265 sec, [B]0 = 250): 243.644
remaining [B] ([1]; Replicate 1, 1445 sec, [B]0 = 250): 243.291
remaining [B] ([1]; Replicate 1, 1626 sec, [B]0 = 250): 242.976
remaining [B] ([1]; Replicate 1, 1806 sec, [B]0 = 250): 242.497
remaining [B] ([1]; Replicate 1, 1988 sec, [B]0 = 250): 242.245
remaining [B] ([1]; Replicate 1, 2168 sec, [B]0 = 250): 242.005
remaining [B] ([1]; Replicate 1, 2349 sec, [B]0 = 250): 241.552
remaining [B] ([1]; Replicate 1, 2530 sec, [B]0 = 250): 241.262
remaining [B] ([1]; Replicate 1, 2710 sec, [B]0 = 250): 240.985
remaining [B] ([1]; Replicate 2, 542 sec, [B]0=250): 244.808
remaining [B] ([1]; Replicate 2, 723 sec, [B]0=250): 244.493
remaining [B] ([1]; Replicate 2, 903 sec, [B]0=250): 244.204
remaining [B] ([1]; Replicate 2, 1084 sec, [B]0=250): 243.889
remaining [B] ([1]; Replicate 2, 1265 sec, [B]0=250): 243.586
remaining [B] ([1]; Replicate 2, 1445 sec, [B]0=250): 243.259
remaining [B] ([1]; Replicate 2, 1626 sec, [B]0=250): 242.931
remaining [B] ([1]; Replicate 2, 1806 sec, [B]0=250): 242.666
remaining [B] ([1]; Replicate 2, 1988 sec, [B]0=250): 242.326
remaining [B] ([1]; Replicate 2, 2168 sec, [B]0=250): 242.036
remaining [B] ([1]; Replicate 2, 2349 sec, [B]0=250): 241.734
remaining [B] ([1]; Replicate 2, 2530 sec, [B]0=250): 241.457
remaining [B] ([1]; Replicate 2, 2710 sec, [B]0=250): 241.142
remaining [B] ([1]; Replicate 3, 723 sec, [B]0=250): 244.853
remaining [B] ([1]; Replicate 3, 903 sec, [B]0=250): 244.526
remaining [B] ([1]; Replicate 3, 1084 sec, [B]0=250): 244.173
remaining [B] ([1]; Replicate 3, 1265 sec, [B]0=250): 243.82
remaining [B] ([1]; Replicate 3, 1445 sec, [B]0=250): 243.568
remaining [B] ([1]; Replicate 3, 1626 sec, [B]0=250): 243.24
remaining [B] ([1]; Replicate 3, 1806 sec, [B]0=250): 242.913
remaining [B] ([1]; Replicate 3, 1988 sec, [B]0=250): 242.686
remaining [B] ([1]; Replicate 3, 2168 sec, [B]0=250): 242.333
remaining [B] ([1]; Replicate 3, 2349 sec, [B]0=250): 241.955
remaining [B] ([1]; Replicate 3, 2530 sec, [B]0=250): 241.627
remaining [B] ([1]; Replicate 3, 2710 sec, [B]0=250): 241.35
remaining [B] [1, 3]: 241.06 and 240.569 and 240.801
remaining [B] [1, 4]: 240.783 and 240.304 and 240.512
remaining [B] [1, 5]: 240.481 and 240.077 and 240.209
remaining [B] [1, 6]: 240.065 and 239.636 and 239.894
remaining [B] [1, 7]: 239.851
remaining [A] ([2]; Replicate 1, time 576 sec): 79.3821
remaining [B] ([2]; Replicate 1, time 576 sec, [B]0 = 250): 225.262
remaining [A] ([2]; Replicate 1, time 606 sec): 78.3561
remaining [B] ([2]; Replicate 1, time 606 sec, [B]0 = 250): 224.236
remaining [A] ([2]; Replicate 2, time 576 sec): 78.9353
remaining [B] ([2]; Replicate 2, time 576 sec, [B]0=250): 225.794
remaining [A] ([2]; Replicate 2, time 606 sec): 77.6031
remaining [B] ([2]; Replicate 2, time 606 sec, [B]0=250): 224.461
remaining [A] ([2]; Replicate 3, time 576 sec): 80.3332
remaining [B] ([2]; Replicate 3, time 576 sec, [B]0=250): 225.786
remaining [A] ([2]; Replicate 3, time 606 sec): 79.3051
remaining [B] ([2]; Replicate 3, time 606 sec, [B]0=250): 224.758
remaining [B] ([2]; time 0 sec, [B]0 = 250, replicates 1-3): 246.537 and 247.093 and 245.89
remaining [B] ([2]; time 30 sec, [B]0 = 250, replicates 1-3): 245.319 and 244.842 and 244.643
remaining [B] ([2]; time 60 sec, [B]0 = 250, replicates 1-3): 243.453 and 243.816 and 242.942
remaining [B] ([2]; time 91 sec, [B]0 = 250, replicates 1-3): 242.316 and 242.334 and 241.723
remaining [B] ([2]; time 121 sec, [B]0 = 250, replicates 1-3): 241.072 and 241.108 and 240.278
remaining [B] ([2]; time 151 sec, [B]0 = 250, replicates 1-3): 240.152 and 239.968 and 239.257
remaining [B] ([2]; time 182 sec, [B]0 = 250, replicates 1-3): 239.232 and 238.714 and 238.265
remaining [B] ([2]; time 212 sec, [B]0 = 250, replicates 1-3): 238.15 and 237.631 and 237.245
remaining [B] ([2]; time 242 sec, [B]0 = 250, replicates 1-3): 236.96 and 236.491 and 236.366
remaining [B] ([2]; time 273 sec, [B]0 = 250, replicates 1-3): 235.85 and 235.38 and 235.431
remaining [B] ([2]; time 303 sec, [B]0 = 250, replicates 1-3): 234.308 and 234.268 and 234.354
remaining [B] ([2]; time 333 sec, [B]0 = 250, replicates 1-3): 233.361 and 233.157 and 233.277
remaining [B] ([2]; time 364 sec, [B]0 = 250, replicates 1-3): 232.279 and 232.188 and 232.341
remaining [B] ([2]; time 394 sec, [B]0 = 250, replicates 1-3): 231.197 and 231.247 and 230.981
remaining [B] ([2]; time 424 sec, [B]0 = 250, replicates 1-3): 230.602 and 230.05 and 230.442
remaining [B] ([2]; time 454 sec, [B]0 = 250, replicates 1-3): 229.357 and 229.309 and 229.478
remaining [B] ([2]; time 485 sec, [B]0 = 250, replicates 1-3): 228.681 and 228.084 and 229.195
remaining [B] ([2]; time 515 sec, [B]0 = 250, replicates 1-3): 227.112 and 227.086 and 227.097
remaining [B] ([2]; time 545 sec, [B]0 = 250, replicates 1-3): 226.462 and 226.317 and 225.935
SMILES: O=C(CCl)Nc1ccc(F)cc1 [Compound C3]
second-order [1, 3]: 0.0003934 and 0.0003816 and 0.000404
second-order [1, 4]: 0.0004067 and 0.0003942 and 0.0004162
second-order [1, 5]: 0.0004206 and 0.0004081 and 0.0004267
second-order [1, 6]: 0.0004352 and 0.0004273 and 0.0004471
second-order [1, 7]: 0.0004498 and 0.0004372 and 0.0004612
second-order ([1]; Time 3794 sec, [B]0 = 250, Replicates 1-3): 0.0004633 and 0.0004542 and 0.0004754
second-order ([1]; Time 3974 sec, [B]0 = 250, Replicates 1-3): 0.0004793 and 0.0004648 and 0.0004891
second-order ([1]; Time 4155 sec, [B]0 = 250, Replicates 1-3): 0.0004918 and 0.0004819 and 0.0004992
second-order ([1]; Time 4336 sec, [B]0 = 250, Replicates 1-3): 0.0005073 and 0.0004944 and 0.000519
second-order ([1]; Time 4516 sec, [B]0 = 250, Replicates 1-3): 0.0005217 and 0.00051 and 0.0005352
second-order ([1]; Time 4697 sec, [B]0 = 250, Replicates 1-3): 0.0005368 and 0.0005292 and 0.0005485
second-order ([1]; Time 4878 sec, [B]0 = 250, Replicates 1-3): 0.0005501 and 0.00054 and 0.0005589
second-order ([1]; Time 5058 sec, [B]0 = 250, Replicates 1-3): 0.0005616 and 0.0005558 and 0.0005759
second-order ([1]; Time 5239 sec, [B]0 = 250, Replicates 1-3): 0.0005799 and 0.0005704 and 0.0005876
second-order ([1]; Time 5419 sec, [B]0 = 250, Replicates 1-3): 0.0005928 and 0.0005784 and 0.0006067
second-order ([1]; Time 5600 sec, [B]0 = 250, Replicates 1-3): 0.000607 and 0.0005999 and 0.0006197
second-order ([1]; Time 5781 sec, [B]0 = 250, Replicates 1-3): 0.0006238 and 0.0006104 and 0.000634
second-order ([1]; Time 5961 sec, [B]0 = 250, Replicates 1-3): 0.0006375 and 0.0006271 and 0.0006509
second-order ([2]; Replicate 1, time 576 sec, second-order plot value): 0.001145
second-order ([2]; Replicate 1, time 606 sec, second-order plot value): 0.001203
second-order ([2]; Replicate 2, time 576 sec, second-order plot value): 0.001128
second-order ([2]; Replicate 2, time 606 sec, second-order plot value): 0.001203
second-order ([2]; Replicate 3, time 576 sec, second-order plot value): 0.001111
second-order ([2]; Replicate 3, time 606 sec, second-order plot value): 0.001168
second-order ([2]; time 0 sec, replicates 1-3): 0.000164 and 0.0001357 and 0.0001139
second-order ([2]; time 30 sec, replicates 1-3): 0.0002157 and 0.000185 and 0.0002054
second-order ([2]; time 60 sec, replicates 1-3): 0.0002877 and 0.0002622 and 0.000248
second-order ([2]; time 91 sec, replicates 1-3): 0.0003403 and 0.0003102 and 0.0003108
second-order ([2]; time 121 sec, replicates 1-3): 0.0004041 and 0.0003637 (2×)
second-order ([2]; time 151 sec, replicates 1-3): 0.0004499 and 0.0004039 and 0.0004137
second-order ([2]; time 182 sec, replicates 1-3): 0.0004951 and 0.0004446 and 0.0004698
second-order ([2]; time 212 sec, replicates 1-3): 0.0005423 and 0.0004932 and 0.0005191
second-order ([2]; time 242 sec, replicates 1-3): 0.0005835 and 0.0005476 and 0.0005718
second-order ([2]; time 273 sec, replicates 1-3): 0.0006281 and 0.0005992 and 0.0006241
second-order ([2]; time 303 sec, replicates 1-3): 0.0006802 and 0.0006724 and 0.0006773
second-order ([2]; time 333 sec, replicates 1-3): 0.0007331 and 0.0007182 and 0.0007315
second-order ([2]; time 364 sec, replicates 1-3): 0.0007799 and 0.0007714 and 0.0007795
second-order ([2]; time 394 sec, replicates 1-3): 0.0008491 and 0.0008256 and 0.0008268
second-order ([2]; time 424 sec, replicates 1-3): 0.000877 and 0.0008557 and 0.000888
second-order ([2]; time 454 sec, replicates 1-3): 0.0009274 and 0.0009198 and 0.0009265
second-order ([2]; time 485 sec, replicates 1-3): 0.0009424 and 0.0009551 and 0.0009912
second-order ([2]; time 515 sec, replicates 1-3): 0.001056 and 0.001039 and 0.001045
second-order ([2]; time 545 sec, replicates 1-3): 0.00112 and 0.001074 and 0.001087
